Results published in US11319313B2, “Crystalline forms of deuterium-enriched pioglitazone” (Poxel SA, priority 2020, dated 2022).
Structures can show the parent of a compound that is named as a salt. Where two headings read alike, the source gives them in different places. Marks after values point to notes of the source that are not given here.

Key:
[1] = pH-dependent solubility of crystalline salts (48 h equilibration, HPLC); type: physicochemical; conditions: for solubility at 48 h: 22 °C, thermodynamic from solid; for Solubility: room temperature, 48 hours
Protocol: The pH-dependent solubility profiles of the crystalline DCl salt form of deuterium-enriched (R)-pioglitazone, and crystalline pioglitazone HCl were determined at room temperature (about 21° C. to about 23° C.) in the pH range of 0.3-7.6. For the crystalline HCl salt form of deuterium-enriched (R)-pioglitazone, the pH-dependent solubility profile was measured at room temperature (about 21° C. to about 23° C.) in the pH range of 0.3-3.5.
For the crystalline DCl salt form of deuterium-enriched pioglitazone, the pH-dependent solubility profile was measured at room temperature (about 21° C. to about 23° C.) in the pH range of 0.7-3.5.
Suspensions of the three crystalline forms were prepared in water or USP buffer solutions. The pH of the suspensions was adjusted through the addition of 0.1 M HCl or 0.1 M NaOH. For the preparation of suspensions with a pH of 0.5 or lower, the pH was adjusted using 1 M HCL.
The suspensions were then allowed to equilibrate at room temperature (about 21° C. to about 23° C.) for 48 hours. After equilibration the solid phases were separated from the liquid phases by centrifugation, subsequently dried and then analyzed by XRPD. The concentration of deuterium-enriched (R)-pioglitazone or pioglitazone in the liquid phases (mother liquors) was determined by HPLC (see HPLC method described in Example 5).

[2] = Dog pharmacokinetic (PK) study, single oral administration; type: in vivo, Beagle dogs; conditions: dog, in vivo; for AUC0-24, Total Pio / AUC0-24, Total R-pio / AUC0-24, Total S-pio / Cmax, Total Pio / Cmax, Total R-pio / Cmax, Total S-pio / T1/2z, Total Pio / T1/2z, Total R-pio / T1/2z, Total S-pio / Tmax, Total Pio / Tmax, Total R-pio / Tmax, Total S-pio: po
Protocol: The 3 Beagle male dogs were fasted before dosing. Then all test drugs were administered by the oral route using API in a capsule. [table] Food was given no sooner than one hour after dose administration on the days of treatment. Each administration was separated by a wash-out period of at least 2 days. […] Predose (just before dosing) and then […] after dosing.

[3] = in vivo; conditions: beagle, dog, plasma, po, 10 mg/kg/day
[4] = 13-week dog toxicology study, toxicokinetics on day 91; conditions: Day 91, 10 mg/kg/day
[5] = Solubility of crystalline HCl salt in various solvents (visual dissolution); type: physicochemical; conditions: 22 °C, thermodynamic from solid, ambient temperature, visual inspection
Protocol: […]; (ii) the resulting mixtures were then stirred at ambient temperature (about 21° C. to about 23° C.) for 5-10 minutes; (iii) the mixtures were then visually inspected to determine if the crystalline HCl salt had completely dissolved; (iv) if the crystalline HCl salt had not completely dissolved more solvent was added until complete dissolution occurred. Quantitative testing: (i) 100 mg of crystalline HCl salt was added to 4 vol. of each solvent (0.4 mL) dimethylformamide, methanol and DMSO; (ii) the resulting mixtures were then stirred at ambient temperature (about 20° C. to about 25° C.) for 5-10 minutes; (iii) the mixtures were then visually inspected to determine if the crystalline HCl salt had completely dissolved; (iv) if the crystalline HCl salt had not completely dissolved more solvent was added until complete dissolution occurred.
The solubilities were then calculated using the total quantity of crystalline HCl salt and solvent used for each solvent.

[6] = Solubility of crystalline DCl salt in various solvents (suspension, HPLC); type: physicochemical; conditions: 24 hours at room temperature
Excerpt: Aliquots of the mother liquor were then taken from each suspension and analyzed by HPLC to determine the concentration of deuterium-enriched (R)-pioglitazone in the different solvents. [table]

[7] = pH 1.6, simulated gastric fluid
[8] = Water, filtered mother liquor pH 1.6

For `CCc1ccc(CCOc2ccc(CC3SC(=O)NC3=O)cc2)nc1` (centres unmarked) [Pioglitazone HCl Salt, pioglitazone hydrochloride, reference compound], the “Solubility (in words)” value [1] was “practically insoluble”, the solubility at 48 h ([1]; pH 0.6, aqueous buffer) was 2880 µg/mL and the solubility at 48 h ([1]; pH 0.7, aqueous buffer) was 4000 µg/mL. It also gave a solubility at 48 h ([1]; pH 1.2, simulated gastric fluid) of 670 µg/mL, a solubility at 48 h [1, 7] of 440 µg/mL and a solubility at 48 h ([1]; pH 3, aqueous buffer) of 30 µg/mL. For the same molecule, the solubility at 48 h ([1]; pH 4.5, aqueous buffer) was under 30 µg/mL, the solubility at 48 h ([1]; pH 4.6, aqueous buffer) was under 30 µg/mL and the solubility at 48 h ([1]; pH 5.6, aqueous buffer) was under 30 µg/mL. For the same molecule, the solubility at 48 h ([1]; pH 6.6, aqueous buffer) was under 30 µg/mL and the solubility at 48 h ([1]; pH 7.6, aqueous buffer) was under 30 µg/mL.

With `[2H][C@@]1(Cc2ccc(OCCc3ccc(CC)cn3)cc2)SC(=O)NC1=O` [PXL064, deuterium-enriched (S)-pioglitazone] the “AUC0-24, Total Pio” value ([2]; 5 mg/kg) was 1410 ng·h/mL, the “AUC0-24, Total R-pio” value ([2]; 5 mg/kg) was 203 ng·h/mL and the “AUC0-24, Total S-pio” value ([2]; 5 mg/kg) was 1200 ng·h/mL. For the same molecule, the “Cmax, Total Pio” value ([2]; 5 mg/kg) was 588 ng/mL, the “Cmax, Total R-pio” value ([2]; 5 mg/kg) was 54.0 ng/mL and the “Cmax, Total S-pio” value ([2]; 5 mg/kg) was 538 ng/mL. The “T1/2z, Total Pio” value ([2]; 5 mg/kg) was 1.73 h, the “T1/2z, Total R-pio” value ([2]; 5 mg/kg) was 1.91^a h and the “T1/2z, Total S-pio” value ([2]; 5 mg/kg) was 1.75 h. The “Tmax, Total Pio” value ([2]; 5 mg/kg) was 2 h, the “Tmax, Total R-pio” value ([2]; 5 mg/kg) was 2 h and the “Tmax, Total S-pio” value ([2]; 5 mg/kg) was 2 h.

For `[2H]C1(Cc2ccc(OCCc3ccc(CC)cn3)cc2)SC(=O)NC1=O` (racemic) [PXL061, deuterium-enriched pioglitazone], the “Frel vs PXL061 (relative oral bioavailability), Total Pioglitazone” value [2] was 1, the “AUC0-24, Total Pio” value ([2]; 10 mg/kg) was 4800 ng·h/mL and the “AUC0-24, Total R-pio” value ([2]; 10 mg/kg) was 2650 ng·h/mL. For the same molecule, the “AUC0-24, Total S-pio” value ([2]; 10 mg/kg) was 2150 ng·h/mL, the “Cmax, Total Pio” value ([2]; 10 mg/kg) was 1310 ng/mL and the “Cmax, Total R-pio” value ([2]; 10 mg/kg) was 638 ng/mL. For the same molecule, the “Cmax, Total S-pio” value ([2]; 10 mg/kg) was 683 ng/mL, the “T1/2z, Total Pio” value ([2]; 10 mg/kg) was 4.03 h and the “T1/2z, Total R-pio” value ([2]; 10 mg/kg) was 2.78 h. For the same molecule, the “T1/2z, Total S-pio” value ([2]; 10 mg/kg) was 3.61 h, the “Tmax, Total Pio” value ([2]; 10 mg/kg) was 1 h and the “Tmax, Total R-pio” value ([2]; 10 mg/kg) was 1 h. The “Tmax, Total S-pio” value ([2]; 10 mg/kg) was 1 h.

With `CCc1ccc(CCOc2ccc(CC3SC(=O)NC3=O)cc2)nc1` (racemic) [Pioglitazone] the AUC(0-t) ([3]; female) was 5620 ng·h/mL, the AUC(0-t) ([3]; male) was 2970 ng·h/mL and the “AUC0-24, ss dose normalized, total pioglitazone” value ([4]; female dogs (F)) was 562 ng·h/mL. The “AUC0-24, ss dose normalized, total pioglitazone” value ([4]; male dogs (M)) was 297 ng·h/mL.

Work on `[2H]Cl.[2H]N1C(=O)SC([2H])(Cc2ccc(OCCc3ccc(CC)cn3)cc2)C1=O` (racemic) [deuterium-enriched pioglitazone] yielded a Solubility ([1]; Water, filtered mother liquor pH 0.7) of 5240 µg/mL, a Solubility ([1]; Water, filtered mother liquor pH 0.9) of 2490 µg/mL and a Solubility ([1]; Water, filtered mother liquor pH 1.1) of 1630 µg/mL. It also gave a Solubility [1, 8] of 420 µg/mL, a Solubility ([1]; Water, filtered mother liquor pH 3.1) of under 30 µg/mL and a Solubility ([1]; Water, filtered mother liquor pH 4.8) of under 30 µg/mL. The “pH-dependent solubility behavior (in words)” value ([1]; pH range 0.7-3.5) was “behavior similar to that of pioglitazone HCl”.

Molecule `[2H][C@]1(Cc2ccc(OCCc3ccc(CC)cn3)cc2)SC(=O)NC1=O` [deuterium-enriched (R)-pioglitazone] has a Solubility ([5]; organic solvent or mixture, DMSO) of over 50000 µg/mL, a Solubility ([5]; organic solvent or mixture, Dichloromethane) of 5000 to 10000 µg/mL and a Solubility ([5]; organic solvent or mixture, Ethanol) of 5000 to 10000 µg/mL. The Solubility ([5]; organic solvent or mixture, Ethyl acetate) was 5000 to 10000 µg/mL, the Solubility ([5]; organic solvent or mixture, Methanol) was about 50000 µg/mL and the Solubility ([5]; organic solvent or mixture, N,N-dimethylformamide) was about 50000 µg/mL. It also gave a Solubility ([5]; organic solvent or mixture, Tetrahydrofuran) of 5000 to 10000 µg/mL, a Solubility ([5]; organic solvent or mixture, Toluene) of 5000 to 10000 µg/mL and a Solubility ([5]; Water) of 5000 to 10000 µg/mL. For the same molecule, the solubility at 48 h ([1]; pH 0.5, aqueous buffer) was 2330 µg/mL, the solubility at 48 h ([1]; pH 0.6, aqueous buffer) was 2600 µg/mL and the solubility at 48 h ([1]; pH 0.7, aqueous buffer) was 3270 µg/mL. It also gave a solubility at 48 h ([1]; pH 0.8, aqueous buffer) of 3770 µg/mL, a solubility at 48 h ([1]; pH 1.4, simulated gastric fluid) of 5250 µg/mL and a solubility at 48 h [1, 7] of 3470 µg/mL. For the same molecule, the solubility at 48 h ([1]; pH 3, aqueous buffer) was 200 µg/mL, the solubility at 48 h ([1]; pH 5.7, aqueous buffer) was under 50 µg/mL and the “Solubility (in words)” value ([1]; pH 4) was “practically insoluble”.

For `[2H]Cl.[2H]N1C(=O)S[C@]([2H])(Cc2ccc(OCCc3ccc(CC)cn3)cc2)C1=O` [deuterium-enriched (R)-pioglitazone], the Solubility ([6]; 2-propanol) was 500 µg/mL, the Solubility ([6]; 3-pentanone) was 500 µg/mL and the Solubility ([6]; Acetone) was 500 µg/mL. It also gave a Solubility ([6]; Chloroform) of 2000 µg/mL, a Solubility ([6]; DMSO) of 225900 µg/mL and a Solubility ([6]; Ethanol) of 4400 µg/mL. For the same molecule, the Solubility ([6]; Ethyl acetate) was under 100 µg/mL, the Solubility ([6]; Methanol) was 45000 µg/mL and the Solubility ([6]; N,N-dimethylformamide) was 46400 µg/mL. The Solubility ([6]; Tetrahydrofuran) was 1800 µg/mL, the Solubility ([6]; Water) was 7700 µg/mL and the Solubility ([6]; tert-butyl methyl ether) was under 100 µg/mL. It also gave a Solubility ([1]; Acetate Buffer, filtered mother liquor pH 4.4) of under 50 µg/mL, a Solubility ([1]; Phosphate Buffer, filtered mother liquor pH 6.5) of under 50 µg/mL and a Solubility ([1]; Phosphate Buffer, filtered mother liquor pH 7.4) of under 50 µg/mL. It also gave a Solubility ([1]; Water, filtered mother liquor pH 0.4) of 1600 µg/mL, a Solubility ([1]; Water, filtered mother liquor pH 0.6) of 3010 µg/mL and a Solubility ([1]; Water, filtered mother liquor pH 0.8) of 3300 µg/mL. For the same molecule, the Solubility ([1]; Water, filtered mother liquor pH 1.4) was 4540 µg/mL, the Solubility [1, 8] was 2580 µg/mL and the Solubility ([1]; Water, filtered mother liquor pH 2.4) was 390 µg/mL. For the same molecule, the Solubility ([1]; Water, filtered mother liquor pH 3.7) was 50 µg/mL, the Solubility ([1]; Water, filtered mother liquor pH 6.8) was under 50 µg/mL and the “Solubility (in words)” value ([1]; above pH 4) was “practically insoluble”.
